Test results reported in patent EP3760291B1 (Stellenbosch University, priority 2019, dated 2021).

Assays:
[1] = Partitioning of resveratrol from biomass (grape pomace) in polymer-salt (PEG-salt) aqueous two-phase system; type: physicochemical
Description: The partitioning of the polyphenolic biomolecule can be quantified using parameters such as the partition coefficient (K) and the yield (Y). The partition coefficient reflects the extent of separation of the polyphenolic compound into the polymer phase. It is defined as the ratio of […]. Partition coefficients of more than 1 indicate a higher concentration of the specific molecule in the top phase. The partition coefficient (K) is calculated with equation 5 in which cT is the concentration of the molecule in the top phase and CB is the concentration of the molecule in the bottom phase. K = (CT)/(CB) [formula]
Polymer-salt aqueous two-phase systems with PEG of different molecular weights were prepared using PEG 400 (Mw =400 g/mol), PEG 1000 (Mw =1000 g/mol), PEG 4000 (Mw =4000 g/mol), PEG 8000 (Mw =8000 g/mol), and PEG 10000 (Mw =10 000 g/mol).
Two different ATP systems with different polymer and salt concentrations were investigated. System A contains 11 wt% PEG and 26 wt% ammonium sulphate and system B contains 13 wt% PEG and 13 wt% ammonium sulphate. Table 2. Quantities of materials used to extract resveratrol in systems A and B
20 ml pomace was added to a polymer-salt ATP systems comprising 20 ml water, 5 g PEG 8000 (11 wt%) and 2.5 g (7 wt%), 5 g (13 wt%), 8 g (19 wt%) and 12 g (26 wt%) ammonium salt, respectively.
20 ml pomace was added to a polymer-salt ATP systems comprising 11 wt% PEG 8000 and 26 wt% tartrate, citrate, sulphate and phosphate salt solutions (20 ml water), respectively. The partition coefficient and percentage extraction of resveratrol to the PEG top phase was determined for each of the different types of salts.
The bottom phase of the ATPS (consisting of the salt solution) therefore only contained trace amounts of resveratrol, with the remaining resveratrol still contained in the biomass. It was therefore assumed that within the bottom phases exiting the polymer-salt ATPS reactor, that the remaining resveratrol that was not extracted would be contained within the raw biomass of grape pomace and canes, and not in the salt solution.

[2] = type: physicochemical; settings: pH 11.03
Protocol: Polymer-polymer aqueous two-phase systems were prepared using maltodextrin (mdx) in combination with PEG 4000 and PEG 8000. […] Demineralised water was added to yield a net weight of 200 g of solution.
Control/base solutions were prepared to be used as a baseline in the spectrophotometer by preparing the same solutions described above, but without resveratrol.
The aqueous two-phase systems were formed by continuously stirring the solutions using a magnetic stirrer for 30 minutes. […] In both the extraction solution and in the base solution two distinct phases were formed. 1 ml of the bottom phase of the extraction solution was separated from the system using a pipette tapped into an Erlenmeyer flask and 1 ml of the bottom phase of the blank solution was poured into a separate Erlenmeyer flask. The solutions were diluted by adding 50 ml of demineralised water to each.
Cuvettes containing the base solution were placed in the spectrophotometer and the system baselined. One of the cuvettes was then removed, rinsed with the diluted top phase of the extraction solution, and filled with the solution. […] The absorbance at the peak was then used to quantify the resveratrol content.
The resveratrol content of the top phase was quantified using the same methodology as for the bottom phase, using the top phase of the base solution to baseline the spectrophotometer. […]

[3] = water; cited from earlier work
[4] = Partitioning of resveratrol from biomass (grape pomace) in polymer-salt (PEG-salt) aqueous two-phase system; type: physicochemical; settings: about 10% (w/w) PEG 8000 and about 15% (w/w) tartrate salt; raw biomass

- Partition Coefficient ([1]; 11 wt% PEG 8000, Ammonium sulphate, 25,5 wt% salt, to PEG top phase): 351
- Partition Coefficient ([1]; 11 wt% PEG 8000, Potassium hydrogen phosphate trihydrate, 25,5 wt% salt, to PEG top phase): 218
- Partition Coefficient ([1]; 11 wt% PEG 8000, Potassium sodium tartrate tetrahydrate, 25,5 wt% salt, to PEG top phase): 177
- Partition Coefficient ([1]; 11 wt% PEG 8000, Tri-sodium citrate dihydrate, 25,5 wt% salt, to PEG top phase): 79
- Partition Coefficient ([1]; PEG 8000 (11 wt%), 7 wt% ammonium sulphate, to PEG top phase): 78
- Partition Coefficient ([1]; PEG 8000 (11 wt%), 13 wt% ammonium sulphate, to PEG top phase): 242
- Partition Coefficient ([1]; PEG 8000 (11 wt%), 19 wt% ammonium sulphate, to PEG top phase): 334
- Partition Coefficient ([1]; PEG 8000 (11 wt%), 26 wt% ammonium sulphate, to PEG top phase): 351
- Partition Coefficient ([1]; System A: 11 wt% PEG, 26 wt% ammonium sulphate, PEG 400, to PEG top phase): 164
- Partition Coefficient ([1]; System A: 11 wt% PEG, 26 wt% ammonium sulphate, PEG 1000, to PEG top phase): 177
- Partition Coefficient ([1]; System A: 11 wt% PEG, 26 wt% ammonium sulphate, PEG 4000, to PEG top phase): 341
- Partition Coefficient ([1]; System A: 11 wt% PEG, 26 wt% ammonium sulphate, PEG 8000, to PEG top phase): 351
- Partition Coefficient ([1]; System A: 11 wt% PEG, 26 wt% ammonium sulphate, PEG 10000, to PEG top phase): 174
- Partition Coefficient ([1]; System B: 13 wt% PEG, 13 wt% ammonium sulphate, PEG 4000, to PEG top phase): 33
- Partition Coefficient ([1]; System B: 13 wt% PEG, 13 wt% ammonium sulphate, PEG 8000, to PEG top phase): 242
- Partition Coefficient ([1]; System B: 13 wt% PEG, 13 wt% ammonium sulphate, PEG 10000, to PEG top phase): 200
- partition coefficient of the system [2]: 1.36
- resveratrol partitioning to the top phase [4]: 99.6%
Compound: Oc1ccc(C=Cc2cc(O)cc(O)c2)cc1 [resveratrol]
- aqueous solubility [3]: 3 mg/100 ml
